Laboratory results as given in patent US8697629B2, “Modulation of intracellular signaling” (Angstrom Pharmaceuticals, Inc., priority 2010, dated 2014).

Tests used:
A2780 cells = assay: Boyden chamber chemotaxis of A2780 cells; type: cell-based; details: 10 ng/ml VEGF in NIH3T3-conditioned media, overnight
Experimental: A2780 (FIG. 10a) and SKOV3 (FIG. 10b) cells were incubated with the indicated concentrations of Å6 peptide for 30 min at 37° C. Aliquots representing 6,000 cells were placed on quadruplicate, CnI-coated filters (8 μm pores) in Boyden chambers and the cells allowed to migrate overnight in response to 10 ng/ml VEGF in NIH3T3-conditioned media containing the indicated concentrations of Å6. Upon completion of migration, the apical surfaces of the membranes were wiped clean and the migrating cells on the basal surface were stained with Geimsa stain and the cells present in representative fields of the membranes counted. Data represent the averages+/−standard deviations obtained from the replicate filters. […] This provides further confirmation that CD44 is the target for the Å6 peptide.

CD44 = biological target: T1, CD44 (Homo sapiens, UniProt P16070); assay: Dimerization of CD44 in SKOV3 cells, anti-CD44 B-F24 immunoblot; type: cell-based; details: SKOV3 cultured 20 hr with 1 or 10 μM Å6, non-reducing
T1 construct: endogenous in cells; host or cells: SKOV3 cells
T1 sequence (P16070 21-742): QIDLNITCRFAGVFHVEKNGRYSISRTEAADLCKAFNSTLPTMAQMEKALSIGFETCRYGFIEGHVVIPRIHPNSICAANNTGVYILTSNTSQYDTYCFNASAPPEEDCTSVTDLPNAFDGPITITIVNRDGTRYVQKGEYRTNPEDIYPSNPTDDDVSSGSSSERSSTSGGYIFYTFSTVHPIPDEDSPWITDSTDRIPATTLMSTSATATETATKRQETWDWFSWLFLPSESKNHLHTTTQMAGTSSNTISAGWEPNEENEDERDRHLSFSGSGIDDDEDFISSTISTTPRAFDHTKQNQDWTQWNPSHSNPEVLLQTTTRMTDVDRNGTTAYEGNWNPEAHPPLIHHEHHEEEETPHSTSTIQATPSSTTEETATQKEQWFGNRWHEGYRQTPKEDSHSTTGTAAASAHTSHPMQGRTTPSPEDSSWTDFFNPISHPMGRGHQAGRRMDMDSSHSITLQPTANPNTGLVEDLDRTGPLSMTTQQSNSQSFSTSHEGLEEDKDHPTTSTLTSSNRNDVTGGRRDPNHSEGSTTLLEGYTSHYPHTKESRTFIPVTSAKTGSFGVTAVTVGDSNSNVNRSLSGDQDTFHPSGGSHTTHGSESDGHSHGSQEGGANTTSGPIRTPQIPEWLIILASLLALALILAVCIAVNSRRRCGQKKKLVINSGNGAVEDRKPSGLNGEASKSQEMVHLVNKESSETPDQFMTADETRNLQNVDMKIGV
Experimental: In FIG. 13 SKOV3 cells were cultured for 20 hr with no additions, 1 or 10 μM Å6 or 100 ng/ml PMA. Triton X-100 lysates were generated and further solubilized in SDS-PAGE sample buffer under non-reducing conditions. Aliquots representing 7.5 μg of cellular protein were subjected to SDS-PAGE followed by immunoblot analysis with the anti-CD44 murine monoclonal B-F24. The presence of stained higher molecular weight bands can be indicative of CD44 dimers and/or oligomers.

B16 melanoma cells = assay: B16 melanoma lung metastasis model; type: in vivo, C57BL/6J mice; details: melanoma cells injected in the tail vein
Experimental: The B16 melanoma metastasis is well known in the art. A typical protocol for assessing the inhibitory effect of a compound on metastasis is described below. Such a protocol was followed to assess the effect of Å6 on metastasis.
Briefly, B16 melanoma cells can be cultured in RPMI-1640 with 10% fetal bovine serum at 37° C. in an atmosphere of 95% air and 5% CO2. C57BL/6J mice of six to eight weeks can be purchased from commercial suppliers. For the lung metastasis model, about 1×10^5 melanoma cells suspended in 100 μl saline were injected in the tail vein in the presence or absence of Å6. Administration of the Å6 peptide inhibited the lung metastasis by 50% or more.

ERK 1/2 = ERK 1/2 phosphorylation (T202/Y204) in SKOV3 cells, immunoblot; type: cell-based
Experimental: Cells were detached from their culture vessels by brief trypsinization, suspended in complete media and centrifuged at 250×g for 10 min at room temperature. The cell pellets were suspended in Dulbeco's phosphate buffered saline (DPBS) and re-centrifuged for a total of three washes. The cells were then re-suspended at 3.33E5/ml in 24 ml of either RPMI containing 0.5% BSA (Sigma Chem. Co. #A0336) (RPMI/BSA) or the conditioned media of growing NIH3T3 fibroblasts (10% FBS in DMEM) supplemented with 10 ng/ml vascular endothelial growth factor (VEGF) (CMN). The cells were then treated with or without 100 ug/ml soluble hyaluronic acid (HA; human umbilical, Calbiochem #385902) for 30 min at 37° C. under 5% CO2. Aliquots representing 2E6 cells were then plated into 10 cm culture dishes and A6 added to yield final concentrations of 0, 10, 100 and 1000 nM. The cells were cultured overnight (18 hr) at 37° C. under 5% CO2.
After 18 hr of treatment, the media were aspirated from the 10 cm dishes and saved. The plates were washed 3 times with 4 ml of ice-cold DPBS which were pooled with the reserved non-adherent cells. The non-adherent cells were centrifuged at 250×g for 10 min at 4° C., washed twice with cold DPBS, drained and lysed in 50 ul of cold RIPA buffer (ThermoScientific #89901) containing cocktails of broad spectrum phosphatase inhibitors (Calbiochem #524625; used at 2× final concentration) and protease inhibitors (Sigma #P8340) (RIPA/inh.). The 10 cm dishes were drained of remaining wash and the adherent cells lysed by scraping in 200 μL of cold RIPA/inh. For each test condition, the lysates of the non-adherent and adherent populations were combined, vortexed and then centrifuged at 14,000 rpm at 4° C. for 20 min. Aliquots of the cleared lysates were frozen at −80° C. immediately. A small aliquot was reserved for total protein analysis using a BCA Protein Assay Kit (Calbiochem #71285-3).
Samples representing 20 μg of total protein of each lysate were solubilized in the presence of 50 mM Tris pH 6.8, 10% glycerol, 2% SDS and 100 mM DTT for 5 min at 95° C. and then loaded onto 10-20% acrylamide gels (BioRad #345-0044, Tris-HCl, 1 mm, 26 well, 15 μL/well). Electrophoresis was performed using Laemli electrophoresis buffer (0.1% SDS, 25 mM Tris, 192 mM glycine) at 200 V, constant voltage, for one hour. Upon completion of electrophoresis, the proteins were transferred to Immun-Blot PVDF membranes (BioRad #162-0238) in ice-cold 20% methanol in 25 mM Tris, 192 mM glycine for 2 hr at 0.5 Amps, constant current/blotting apparatus. The membranes were then cut vertically between molecular weight markers and in half at the 64 kDa marker to generate pieces for screening of higher molecular weight proteins (e.g., FAK) and lower molecular weight proteins (e.g., MEK and GAPDH). The blots were then blocked for a minimum of 4 hrs at room temperature in 3% bovine serum albumin (Sigma A0336) in 50 mM Tris, pH 7.4, 145 mM NaCl, 0.05% Tween-20 (TTBS) containing 0.05% sodium azide.
Upon completion of the primary antibody incubation, the blots were washed three times for 10 min in TTBS and then incubated with 1/25,000 dilutions of peroxidase-conjugated donkey anti-mouse IgG (Jackson ImmunoResearch #715-035-150) or peroxidase-conjugated donkey anti-rabbit IgG (Jackson ImmunoResearch #711-035-152) in TTBS containing 3% BSA for one hour at room temperature. […]

Substance: acetyl-Lys-Pro-Ser-Ser-Pro-Pro-Glu-Glu-NH2 (Ac-KPSSPPEE-NH2) [Å6]
- migration of A2780 (A2780 cells): essentially unaffected
- CD44 higher molecular weight bands (dimers and/or oligomers) (CD44): higher molecular weight bands are formed
- inhibition of lung metastasis (B16 melanoma cells): ≥ 50%
- pERK/Erk (ERK 1/2; CM/V): appears to have increased
- pERK/Erk (ERK 1/2; CM/V with HA present): decreased
- pERK/Erk (ERK 1/2; basal media (RPMI/BSA)): increased pERK/Erk in a dose dependent manner
- pErk/Erk response to HA (ERK 1/2; basal media with HA): decreased this response to HA
